The values below come from patent US5932548A, “Lysine containing peptides for treatment of heart disease” (priority 1998, dated 1999).

Non-standard residues stand in square brackets, D forms with d. Residues, ends and D or L forms follow the SMILES beside them. dTrp(2-Me) = Cc1[nH]c2ccccc2c1C[C@@H](N)C(=O)O

The subject of assay [1] is isolated rat hearts. Kind of assay: coronary perfusion pressure (CPP) in isolated rat hearts. Conditions: versus saline treatment (no peptide). How it is done: (§1) In the examples that follow, data is presented for the most preferred lysine containing peptides of the invention. The GH releasing effect was measured in rats according to the method described by R. Deghenghi et al., Life Sci. 54: 1321-1328 (1994). The cardiac protection of the instant peptides has been measured essentially as described in the above cited publication by V. De Gennaro Colonna et al., Europ. J. Pharmacol. 334:201-207 (1997).
The effects on coronary perfusion pressure ("CPP") in isolated rat hearts have been measured using Hexarelin (His-D-Mrp-Ala-Trp-D-Phe-Lys-NH2) as reference compound and compared to that for the GH antagonist His-D-Mrp-D-Lys-Trp-D-Phe-Lys-NH2. An increase of CPP over a saline treatment (i.e., no peptide) of 110±10% was found for Hexarelin, but an increase of 160±25% was found for the antagonist.

Assay [2] concerns growth hormone deficient rats. The following applies: De Gennaro Colonna et al. 1997; cited from earlier work.
Assay [3] concerns rats. Briefly: GH releasing effect in rats. It counts as in vivo, rat. How it is done: as §1

Take `Cc1[nH]c2ccccc2c1C[C@@H](NC(=O)[C@@H](N)Cc1cnc[nH]1)C(=O)N[C@@H](C)C(=O)N[C@@H](Cc1c[nH]c2ccccc12)C(=O)N[C@H](Cc1ccccc1)C(=O)N[C@@H](CCCCN)C(N)=O` [Hexarelin, His-D-Mrp-Ala-Trp-D-Phe-Lys-NH2] (H-H[dTrp(2-Me)]AW[dF]K-NH2): the “increase of CPP over a saline treatment” value in assay [1] was determined as 110±10%. Besides, the “effect on cardiac dysfunction” value in assay [2] was “reverse the worsening of cardiac dysfunction”.
As to His-D-Mrp-D-Lys-Trp-D-Phe-Lys-NH2, the “increase of CPP over a saline treatment” value in assay [1] amounted to 160±25%. In addition, in assay [3], the GH liberation entry is listed as “does not liberate GH”.
